Several values for one entry are separate records, joined by “and”; a condition that tells them apart may be missing. Identical values can stand only once. Toxic doses and inconclusive results are not listed. The calls were made as follows: active = survival T/C of 150% or more; inactive = T/C below 125% in these data.
Tested on: P388 leukemia ip, CD2F1 mice, survival T/C
Assay: NCI In Vivo Anticancer Drug Screen. Data for tumor model P388 Leukemia (intraperitoneal) in CD2F1 (CDF1) mice
Conditions: endpoint: median survival time, higher = longer survival
Summary of the method: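 Mice carrying the transplanted tumor received test compound or vehicle. Survival was recorded in each group, and the value is the treated-group measurement divided by that of the vehicle-treated control group.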

[1] = dose: 50.0 mg/kg/injection, schedule: Q01DX009 (ip), vehicle: saline
[2] = dose: 100.0 mg/kg/injection, schedule: Q01DX009 (ip), vehicle: saline
[3] = dose: 200.0 mg/kg/injection, schedule: Q01DX009 (ip), vehicle: saline
[4] = dose: 50.0 mg/kg/injection, schedule: Q01DX009 (ip), vehicle: saline with Tween-80
[5] = dose: 100.0 mg/kg/injection, schedule: Q01DX009 (ip), vehicle: saline with Tween-80
[6] = dose: 50.0 mg/kg/injection, schedule: Q01DX005 (ip), vehicle: saline with Tween-80
[7] = dose: 100.0 mg/kg/injection, schedule: Q01DX005 (ip), vehicle: saline with Tween-80
[8] = dose: 60.0 mg/kg/injection, schedule: Q01DX005 (ip), vehicle: saline with Tween-80
[9] = dose: 120.0 mg/kg/injection, schedule: Q01DX005 (ip), vehicle: saline with Tween-80
[10] = dose: 6.25 mg/kg/injection, schedule: Q01DX009 (ip), vehicle: saline
[11] = dose: 12.5 mg/kg/injection, schedule: Q01DX009 (ip), vehicle: saline
[12] = dose: 25.0 mg/kg/injection, schedule: Q01DX009 (ip), vehicle: saline
[13] = dose: 50.0 mg/kg/injection, schedule: Q01DX009 (ip), vehicle: Klucel (hydroxypropylcellulose) (HPC)
[14] = dose: 100.0 mg/kg/injection, schedule: Q01DX009 (ip), vehicle: Klucel (hydroxypropylcellulose) (HPC)
[15] = dose: 200.0 mg/kg/injection, schedule: Q01DX009 (ip), vehicle: Klucel (hydroxypropylcellulose) (HPC)
[16] = dose: 100.0 mg/kg/injection, schedule: Q04DX003 (ip), vehicle: Klucel (hydroxypropylcellulose) (HPC)
[17] = dose: 200.0 mg/kg/injection, schedule: Q04DX003 (ip), vehicle: Klucel (hydroxypropylcellulose) (HPC)
[18] = dose: 400.0 mg/kg/injection, schedule: Q04DX003 (ip), vehicle: Klucel (hydroxypropylcellulose) (HPC)
[19] = dose: 12.5 mg/kg/injection, schedule: Q01DX005 (ip), vehicle: saline with Tween-80

Measured: T/C

C=CCCC(OC(C)C)OC(C)C
inactive: [1] 98 % of control | [2] 99 % of control | [3] 108 % of control

CC12C(=O)C=CCC1=CCC1C2CCC2(O)C(=O)OC3(C)C4CC5(C)C(COC16OC23C5C6=O)C(=O)O4 (stereo not drawn)
inactive: dose: 25.0 mg/kg/injection, schedule: Q01DX009 (ip), vehicle: saline with Tween-80 96 % of control | [4] 110 % of control | [5] 120 % of control | dose: 150.0 mg/kg/injection, schedule: Q01DX009 (ip), vehicle: Klucel (hydroxypropylcellulose) (HPC) 121 % of control

CCN(CC)CCOC(=O)c1ccc(NC(=S)Nc2ccccc2)cc1
inactive: [6] 98 % of control | [7] 90 % of control

COC(=O)C1CC(C(=O)OC)c2nc3ccccc3nc21 (stereo not drawn)
inactive: dose: 60.0 mg/kg/injection, schedule: Q01DX005 (ip), vehicle: Klucel (hydroxypropylcellulose) (HPC) 100 % of control | dose: 120.0 mg/kg/injection, schedule: Q01DX005 (ip), vehicle: Klucel (hydroxypropylcellulose) (HPC) 98 % of control

O=C(/C=C\c1cccc2ccccc12)c1ccccn1
inactive: dose: 100.0 mg/kg/injection, schedule: Q01DX001 (ip), vehicle: saline with Tween-80 106 % of control | dose: 200.0 mg/kg/injection, schedule: Q01DX001 (ip), vehicle: saline with Tween-80 112 % of control | dose: 400.0 mg/kg/injection, schedule: Q01DX001 (ip), vehicle: saline with Tween-80 112 % of control

CC(=NCc1ccccc1)c1c(C)cc(=O)n(-c2ccccc2)c1O
inactive: [8] 96 % of control | [9] 97 % of control | dose: 240.0 mg/kg/injection, schedule: Q01DX005 (ip), vehicle: saline with Tween-80 89 % of control

CCCCCCCCCCCCCCCCS(=O)(=O)c1ccc(S(=O)(=O)N/N=c2/sc3ccccc3n2C)cc1C(=O)O
inactive: [10] 103 % of control | [11] 97 % of control | [12] 94 % of control | [2] 88 % of control

COc1ccc2c(c1OC)C[N+]1([O-])CCc3cc4c(cc3C1C2)OCO4 (stereo not drawn)
inactive: dose: 0.63 mg/kg/injection, schedule: Q01DX009 (ip), vehicle: distilled water + Tween-80 91 % of control | dose: 1.25 mg/kg/injection, schedule: Q01DX009 (ip), vehicle: distilled water + Tween-80 92 % of control | dose: 2.5 mg/kg/injection, schedule: Q01DX009 (ip), vehicle: distilled water + Tween-80 92 % of control | dose: 5.0 mg/kg/injection, schedule: Q01DX009 (ip), vehicle: distilled water + Tween-80 90 % of control | dose: 10.0 mg/kg/injection, schedule: Q01DX009 (ip), vehicle: distilled water + Tween-80 97 % of control | dose: 20.0 mg/kg/injection, schedule: Q01DX009 (ip), vehicle: distilled water + Tween-80 106 % of control

C#CC(CC)OC(=O)c1ccc([N+](=O)[O-])cc1 (stereo not drawn)
inactive: [13] 103 % of control | [14] 103 % of control | [15] 91 % of control

C1CSCCSCCSCCS1
inactive: [16] 100 % of control | [17] 100 % of control | [18] 101 % of control

CN1CCN(C(=O)Nc2ccc(N=Nc3ccccc3)cc2)CC1
inactive: dose: 12.5 mg/kg/injection, schedule: Q01DX009 (ip), vehicle: saline sonified 105 % of control | dose: 25.0 mg/kg/injection, schedule: Q01DX009 (ip), vehicle: saline sonified 100 % of control

C1CCCC2(CCC1)OCCO2
inactive: [16] 106 % of control | [17] 102 % of control | [18] 95 % of control

O=C(c1ccccc1)C(O)NC(=S)c1ccc(Cl)cc1 (stereo not drawn)
inactive: [4] 107 % of control | [5] 113 % of control | dose: 200.0 mg/kg/injection, schedule: Q01DX009 (ip), vehicle: saline with Tween-80 113 % of control

CCCCN(C)/N=N/c1[nH]ncc1C(=O)OCC
inactive: dose: 100.0 mg/kg/injection, schedule: Q01DX009 (ip), vehicle: other 120 % of control | dose: 200.0 mg/kg/injection, schedule: Q01DX009 (ip), vehicle: other 116 % of control

CN(C)c1ccc2c(=O)cc[nH]c2c1
inactive: dose: 50.0 mg/kg/injection, schedule: Q01DX005 (ip), vehicle: saline 96 % of control | dose: 100.0 mg/kg/injection, schedule: Q01DX005 (ip), vehicle: saline 100 % of control | dose: 200.0 mg/kg/injection, schedule: Q01DX005 (ip), vehicle: saline 100 % of control

O=C1CCN=C2C(=O)c3ccccc3C(O)=C12
inactive: dose: 25.0 mg/kg/injection, schedule: Q01DX009 (ip), vehicle: Klucel (hydroxypropylcellulose) (HPC) 115 % of control | [13] 123 % of control | [14] 121 % of control

CCC[CH2][Ge]([CH2]CCC)([CH2]CCC)[S][Ge]([CH2]CCC)([CH2]CCC)[CH2]CCC
inactive: [1] 91 % of control | [2] 92 % of control | [3] 97 % of control

COc1ccc2cc1Oc1ccc(cc1)CC1c3cc(OC)c(OC)c(c3CCN1C)Oc1c(O)c(OC)cc3c1C(C2)N(C)CC3 (stereo not drawn)
inactive: dose: 20.0 mg/kg/injection, schedule: Q01DX009 (ip), vehicle: Klucel (hydroxypropylcellulose) (HPC) 109 % of control | dose: 40.0 mg/kg/injection, schedule: Q01DX009 (ip), vehicle: Klucel (hydroxypropylcellulose) (HPC) 108 % of control | dose: 80.0 mg/kg/injection, schedule: Q01DX009 (ip), vehicle: Klucel (hydroxypropylcellulose) (HPC) 101 % of control | dose: 160.0 mg/kg/injection, schedule: Q01DX009 (ip), vehicle: Klucel (hydroxypropylcellulose) (HPC) 113 % of control

COc1ccc(Cc2cc(C(C)(C)C)c(O)c(C(C)(C)C)c2)cc1
inactive: dose: 50.0 mg/kg/injection, schedule: Q01DX005 (ip), vehicle: distilled water + alcohol 104 % of control | dose: 100.0 mg/kg/injection, schedule: Q01DX005 (ip), vehicle: distilled water + alcohol 100 % of control | dose: 200.0 mg/kg/injection, schedule: Q01DX005 (ip), vehicle: distilled water + alcohol 93 % of control

CC(N)C(=O)NC(CC(=O)O)C(=O)O (stereo not drawn)
inactive: [11] 95 % of control | [12] 86 % of control | [1] 90 % of control | [2] 94 % of control | [3] 92 % of control

CC1(C)CC(C)(OC(=O)c2ccc(F)cc2)[N+]([O-])=N1 (stereo not drawn)
inactive: dose: 4.7 mg/kg/injection, schedule: Q01DX009 (ip), vehicle: other 115 % of control | dose: 9.4 mg/kg/injection, schedule: Q01DX009 (ip), vehicle: other 112 % of control | dose: 18.8 mg/kg/injection, schedule: Q01DX009 (ip), vehicle: other 106 % of control | dose: 37.5 mg/kg/injection, schedule: Q01DX009 (ip), vehicle: other 120 % of control | dose: 75.0 mg/kg/injection, schedule: Q01DX009 (ip), vehicle: other 106 % of control | dose: 150.0 mg/kg/injection, schedule: Q01DX009 (ip), vehicle: other 101 % of control

Cc1ccc(S(=O)(=O)NC(=O)C#CCOC2CCCCO2)cc1 (stereo not drawn)
inactive: [6] 103 % of control and 122 % of control | [7] 111 % of control and 112 % of control | dose: 200.0 mg/kg/injection, schedule: Q01DX005 (ip), vehicle: saline with Tween-80 112 % of control and 123 % of control

CCCc1cc2ccccc2c2ccccc12
inactive: dose: 50.0 mg/kg/injection, schedule: Q01DX005 (ip), vehicle: Klucel (hydroxypropylcellulose) (HPC) 102 % of control | dose: 100.0 mg/kg/injection, schedule: Q01DX005 (ip), vehicle: Klucel (hydroxypropylcellulose) (HPC) 96 % of control | dose: 200.0 mg/kg/injection, schedule: Q01DX005 (ip), vehicle: Klucel (hydroxypropylcellulose) (HPC) 99 % of control

CC(=O)Nc1c(Cl)cc2c(c1Cl)Cc1cc(N(CCO)CCO)ccc1-2
inactive: [10] 97 % of control | [11] 93 % of control | [12] 93 % of control | [1] 94 % of control

CC(=O)C1C(=O)C(=O)N(c2ccccc2C)C1=O (stereo not drawn)
inactive: [13] 105 % of control | [8] 103 % of control | [14] 107 % of control | [9] 100 % of control | [15] 110 % of control

CNC(=O)OCc1c(COC(=O)NC)c(-c2cccs2)n2c1CCC2
inactive: [19] 122 % of control | [6] 104 % of control

C(#Cc1ccccc1)/C=C/C(=C\c1ccccc1)c1ccccc1
inactive: [19] 101 % of control | dose: 25.0 mg/kg/injection, schedule: Q01DX005 (ip), vehicle: saline with Tween-80 102 % of control | [6] 101 % of control | [7] 100 % of control

COc1cc(Br)c2nsnc2c1
inactive: [6] 91 % of control | [7] 91 % of control
